Experimental data from patent US8012956B2, “Tropane compounds” (Exelixis, Inc., priority 2007, dated 2011).
pIC50: −log10 of the molar value.

Biological target: HSP90 (Homo sapiens, UniProt P07900)
Assay: HSP90 inhibition (HSP90 IC50)
Type: biochemical

pIC50	SMILES
> 6.30	Cc1cc(C(=O)N[C@H]2C[C@H]3CC[C@@H](C2)N3c2ccc(C(N)=O)cn2)c(C)cc1C(N)=O [N-{8-[5-(aminocarbonyl)pyridin-2-yl]-8-azabicyclo[3.2.1]oct-3-endo-yl}-2,5-dimethylbenzene-1,4-dicarboxamide]
5.70 to 6.00	NC(=O)c1ccc(C(=O)N[C@H]2C[C@H]3CC[C@@H](C2)N3c2ccc(C(N)=O)cn2)cc1 [N-{8-[5-(aminocarbonyl)pyridin-2-yl]-8-azabicyclo[3.2.1]oct-3-endo-yl}benzene-1,4-dicarboxamide]
> 6.30	Cc1cc(C(N)=O)c(NC(C)C2CC2)cc1C(=O)N[C@H]1C[C@H]2CC[C@@H](C1)N2c1ccc(C(=O)C2CC2)cn1 (stereo partly drawn) [N-{8-[5-(cyclopropylcarbonyl)pyridin-2-yl]-8-azabicycbo[3.2.1]oct-3-endo-yl}-5-[(l-cyclopropylethyl)amino]-2-methylbenzene-1,4-dicarboxamide]
> 6.30	Cc1cc(C(N)=O)c(NCC(C)(C)C)cc1C(=O)N[C@H]1C[C@H]2CC[C@@H](C1)N2c1ccc(C(=O)C2CC2)cn1 [N-{8-[5-(cyclopropylcarbonyl)pyridin-2-yl]-8-azabicyclo[3.2.1]oct-3-endo-yl)-5-[(2,2-dimethylpropyl)amino]-2-methylbenzene-1,4-dicarboxamide]
> 6.30	Cc1cc(C(N)=O)c(NCC2CC2)cc1C(=O)N[C@H]1C[C@H]2CC[C@@H](C1)N2c1ccc(C(=O)C2CC2)cn1 [N-{8-[5-(cyclopropylcarbonyl)pyridin-2-yl]-8-azabicyclo[3.2.1]oct-3-endo-yl)-5-[(cyclopropylmethyl)amino]-2-methylbenzene-1,4-dicarboxamide]
5.00 to 5.70	CCNc1cc(C(N)=O)c(N[C@H](C)CC)cc1C(=O)NC1CC2CCC(C1)N2c1ccc(C(=O)C2CC2)cn1 (stereo partly drawn) [N-{8-[5-(cyclopropylcarbonyl)pyridin-2-yl]-8-azabicyclo[3.2.1]oct-3-endo-yl}-2-(ethylamino)-5-{[(1R)-1-methylpropyl]amino}benzene-1,4-dicarboxamide]
> 6.30	CC[C@@H](C)Nc1cc(C(=O)NC2CC3CCC(C2)N3c2ccc(C(=O)C3CC3)cn2)c(OC)cc1C(N)=O (stereo partly drawn) [N-{8-[5-(cyclopropylcarbonyl)pyridin-2-yl]-8-azabicyclo[3.2.1]oct-3-endo-yl}-2-(methyloxy)-5-{[(1R)-1-methylpropyl]amino}benzene-1,4-dicarboxamide]
> 6.30	CCc1cc(C(N)=O)c(N[C@H](C)CC)cc1C(=O)NC1CC2CCC(C1)N2c1ccc(C(=O)C2CC2)cn1 (stereo partly drawn) [N-{8-[5-(cyclopropylcarbonyl)pyridin-2-yl]-8-azabicyclo[3.2.1]oct-3-endo-yl}-2-ethyl-5-{[(1R)-1-methylpropyl]amino}benzene-1,4-dicarboxamide]
> 6.30	COc1cc(C(=O)N[C@H]2C[C@H]3CC[C@@H](C2)N3c2ccc(C(=O)C3CC3)cn2)c(C)cc1C(N)=O [N-{8-[5-(cyclopropylcarbonyl)pyridin-2-yl]-8-azabicyclo[3.2.1]oct-3-endo-yl}-2-methyl-5-(methyloxy)benzene-1,4-dicarboxamide]
> 6.30	CCCNc1cc(C(=O)N[C@H]2C[C@H]3CC[C@@H](C2)N3c2ccc(C(=O)C3CC3)cn2)c(C)cc1C(N)=O [N-{8-[5-(cyclopropylcarbonyl)pyridin-2-yl]-8-azabicyclo[3.2.1]oct-3-endo-yl}-2-methyl-5-(propylamino)benzene-1,4-dicarboxamide]
> 6.30	Cc1cc(C(N)=O)c(NC(C)C)cc1C(=O)N[C@H]1C[C@H]2CC[C@@H](C1)N2c1ccc(C(=O)C2CC2)cn1 [N-{8-[5-(cyclopropylcarbonyl)pyridin-2-yl]-8-azabicyclo[3.2.1]oct-3-endo-yl}-2-methyl-5-[(1-methylethyl)amino]benzene-1,4-dicarboxamide]
> 6.30	Cc1cc(C(N)=O)c(NC(C)CC(F)(F)F)cc1C(=O)N[C@H]1C[C@H]2CC[C@@H](C1)N2c1ccc(C(=O)C2CC2)cn1 (stereo partly drawn) [N-{8-[5-(cyclopropylcarbonyl)pyridin-2-yl]-8-azabicyclo[3.2.1]oct-3-endo-yl}-2-methyl-5-[(3,3,3-trifluoro-1-methylpropyl)amino]benzene-1,4-dicarboxamide]
> 6.30	Cc1cc(C(N)=O)c(NCCC(F)(F)F)cc1C(=O)N[C@H]1C[C@H]2CC[C@@H](C1)N2c1ccc(C(=O)C2CC2)cn1 [N-{8-[5-(cyclopropylcarbonyl)pyridin-2-yl]-8-azabicyclo[3.2.1]oct-3-endo-yl}-2-methyl-5-[(3,3,3-trifluoropropyl)amino]benzene-1,4-dicarboxamide]
> 6.30	Cc1cc(C(N)=O)c(N[C@H]2CCOC2)cc1C(=O)NC1CC2CCC(C1)N2c1ccc(C(=O)C2CC2)cn1 (stereo partly drawn) [N-{8-[5-(cyclopropylcarbonyl)pyridin-2-yl]-8-azabicyclo[3.2.1]oct-3-endo-yl}-2-methyl-5-[(3S)-tetrahydrofuran-3-ylamino]benzene-1,4-dicarboxamide]
> 6.30	Cc1cc(C(N)=O)c(NC(C)C2(C)CC2)cc1C(=O)N[C@H]1C[C@H]2CC[C@@H](C1)N2c1ccc(C(=O)C2CC2)cn1 (stereo partly drawn) [N-{8-[5-(cyclopropylcarbonyl)pyridin-2-yl]-8-azabicyclo[3.2.1]oct-3-endo-yl}-2-methyl-5-{[1-(1-methylcyclopropyl)ethyl]amino}benzene-1,4-dicarboxamide]
6.00 to 6.30	COCCOc1cc(C(=O)N[C@H]2C[C@H]3CC[C@@H](C2)N3c2ccc(C(=O)C3CC3)cn2)c(C)cc1C(N)=O [N-{8-[5-(cyclopropylcarbonyl)pyridin-2-yl]-8-azabicyclo[3.2.1]oct-3-endo-yl}-2-methyl-5-{[2-(methyloxy)ethyl]oxy}benzene-1,4-dicarboxamide]
> 6.30	Cc1cc(C(N)=O)c(NC(C(C)C)C(C)C)cc1C(=O)N[C@H]1C[C@H]2CC[C@@H](C1)N2c1ccc(C(=O)C2CC2)cn1 [N-{8-[5-(cyclopropylcarbonyl)pyridin-2-yl]-8-azabicyclo[3.2.1]oct-3-endo-yl}-2-methyl-5-{[2-methyl-1-(1-methylethyl)propyl]amino}benzene-1,4-dicarboxamide]
> 6.30	Cc1cc(C(N)=O)c(NC(C(C)C)C(F)(F)F)cc1C(=O)N[C@H]1C[C@H]2CC[C@@H](C1)N2c1ccc(C(=O)C2CC2)cn1 (stereo partly drawn) [N-{8-[5-(cyclopropylcarbonyl)pyridin-2-yl]-8-azabicyclo[3.2.1]oct-3-endo-yl}-2-methyl-5-{[2-methyl-1-(trifluoromethyl)propyl]amino}benzene-1,4-dicarboxamide]
> 6.30	Cc1cc(C(N)=O)c(N[C@H](C)C(C)(C)C)cc1C(=O)NC1CC2CCC(C1)N2c1ccc(C(=O)C2CC2)cn1 (stereo partly drawn) [N-{8-[5-(cyclopropylcarbonyl)pyridin-2-yl]-8-azabicyclo[3.2.1]oct-3-endo-yl}-2-methyl-5-{[(1R)-1,2,2-trimethylpropyl]amino}benzene-1,4-dicarboxamide]
> 6.30	CC[C@@H](C)Nc1cc(C(=O)NC2CC3CCC(C2)N3c2ccc(C(=O)C3CC3)cn2)c(C)cc1C(N)=O (stereo partly drawn) [N-{8-[5-(cyclopropylcarbonyl)pyridin-2-yl]-8-azabicyclo[3.2.1]oct-3-endo-yl}-2-methyl-5-{[(1R)-1-methylpropyl]amino}benzene-1,4-dicarboxamide]
> 6.30	Cc1cc(C(N)=O)c(NC(C)(C)C)cc1C(=O)N[C@H]1C[C@H]2CC[C@@H](C1)N2c1ccc(C(=O)C2CC2)cn1 [N-{8-[5-(cyclopropylcarbonyl)pyridin-2-yl]-8-azabicyclo[3.2.1]oct-3-endo-yl}-5-[(1,1-dimethylethyl)amino]-2-methylbenzene-1,4-dicarboxamide]
> 6.30	CCC(Nc1cc(C(=O)N[C@H]2C[C@H]3CC[C@@H](C2)N3c2ccc(C(=O)C3CC3)cn2)c(C)cc1C(N)=O)C(C)C (stereo partly drawn) [N-{8-[5-(cyclopropylcarbonyl)pyridin-2-yl]-8-azabicyclo[3.2.1]oct-3-endo-yl}-5-[(1-ethyl-2-methylpropyl)amino]-2-methylbenzene-1,4-dicarboxamide]
> 6.30	CCC(CC)Nc1cc(C(=O)N[C@H]2C[C@H]3CC[C@@H](C2)N3c2ccc(C(=O)C3CC3)cn2)c(F)cc1C(N)=O [N-{8-[5-(cyclopropylcarbonyl)pyridin-2-yl]-8-azabicyclo[3.2.1]oct-3-endo-yl}-5-[(1-ethylpropyl)amino]-2-fluorobenzene-1,4-dicarboxamide]
> 6.30	Cc1cc(C(N)=O)c(NC(C)C(F)F)cc1C(=O)N[C@H]1C[C@H]2CC[C@@H](C1)N2c1ccc(C(=O)C2CC2)cn1 (stereo partly drawn) [N-{8-[5-(cyclopropylcarbonyl)pyridin-2-yl]-8-azabicyclo[3.2.1]oct-3-endo-yl}-5-[(2,2-difluoro-1-methylethyl)amino]-2-methylbenzene-1,4-dicarboxamide]
> 6.30	CCc1cc(C(=O)N[C@H]2C[C@H]3CC[C@@H](C2)N3c2ccc(C(=O)C3CC3)cn2)c(C)cc1C(N)=O [N-{8-[5-(cyclopropylcarbonyl)pyridin-2-yl]-8-azabicyclo[3.2.1]oct-3-endo-yl}-5-ethyl-2-methylbenzene-1,4-dicarboxamide]
> 6.30	Cc1cc(C(N)=O)c(NC(CF)CF)cc1C(=O)N[C@H]1C[C@H]2CC[C@@H](C1)N2c1ccc(C(=O)C2CC2)cn1 [N-{8-[5-(cyclopropylcarbonyl)pyridin-2-yl]-8-azabicyclo[3.2.1]oct-3-endo-yl}-5-{[2-fluoro-1-(fluoromethyl)ethyl]amino}-2-methylbenzene-1,4-dicarboxamide]
> 6.30	Cc1cc(C(N)=O)c(N[C@H](C)C(C)C)cc1C(=O)NC1CC2CCC(C1)N2c1ccc(C(=O)C2CC2)cn1 (stereo partly drawn) [N-{8-[5-(cyclopropylcarbonyl)pyridin-2-yl]-8-azabicyclo[3.2.1]oct-3-endo-yl}-5-{[(1R)-1,2-dimethylpropyl]amino}-2-methylbenzene-1,4-dicarboxamide]
> 6.30	CC[C@@H](C)Nc1cc(C(=O)NC2CC3CCC(C2)N3c2ccc(C(=O)C3CC3)cn2)c(C(F)(F)F)cc1C(N)=O (stereo partly drawn) [N-{8-[5-(cyclopropylcarbonyl)pyridin-2-yl]-8-azabicyclo[3.2.1]oct-3-endo-yl}-5-{[(1R)-1-methylpropyl]amino}-2-(trifluoromethyl)benzene-1,4-dicarboxamide]

SMILES	pIC50
Cc1cc(C(N)=O)c(NC(C2CC2)C2CC2)cc1C(=O)NC1CC2CCC(C1)N2c1ccc(C(=O)C2CC2)cn1 (stereo not drawn) [N-{8-[5-(cyclopropylcarbonyl)pyridin-2-yl]-8-azabicyclo[3.2.1]oct-3-endo-yl}-5-[(dicyclopropylmethyl)amino]-2-methylbenzene-1,4-dicarboxamide]	> 6.30
